Measured values reported in the supplement of paper PMC10307832.

Assays:
Test in all cases: relative viability (nuclei count vs DMSO), 5 days (fraction); higher = more cells survive
Idelalisib + Olaparib = compound: CC[C@H](Nc1ncnc2[nH]cnc12)c1nc2cccc(F)c2c(=O)n1-c1ccccc1 [Idelalisib] + O=C(c1cc(Cc2n[nH]c(=O)c3ccccc23)ccc1F)N1CCN(C(=O)C2CC2)CC1 [Olaparib] (partner 8 µM)
Method in brief: (§1)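 Relative viability divides the nuclei count in treated wells by that in vehicle wells. Lung cancer cell lines were seeded in 1536-well plates, dosed by pin tool the next day, and fixed and stained after 5 days in one step with final 0.05% Triton X-100, 1% formaldehyde and 1 ug/ml Hoechst. Dosing was a single drug or a fixed anchor-drug dose plus five library-drug doses (not always all listed) in √10 steps, and values are medians of duplicate plates imaged at 4×.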

Pemetrexed + Foretinib = compound: Nc1nc2[nH]cc(CCc3ccc(C(=O)N[C@@H](CCC(=O)O)C(=O)O)cc3)c2c(=O)[nH]1 [Pemetrexed] + COc1cc2c(Oc3ccc(NC(=O)C4(C(=O)Nc5ccc(F)cc5)CC4)cc3F)ccnc2cc1OCCCN1CCOCC1 [Foretinib] (partner 0.25 µM)
Method in brief: as §1

Pemetrexed + Lapatinib = compound: Nc1nc2[nH]cc(CCc3ccc(C(=O)N[C@@H](CCC(=O)O)C(=O)O)cc3)c2c(=O)[nH]1 [Pemetrexed] + CS(=O)(=O)CCNCc1ccc(-c2ccc3ncnc(Nc4ccc(OCc5cccc(F)c5)c(Cl)c4)c3c2)o1 [Lapatinib] (partner 2 µM)
Method in brief: as §1

Pemetrexed + Tozasertib = compound: Nc1nc2[nH]cc(CCc3ccc(C(=O)N[C@@H](CCC(=O)O)C(=O)O)cc3)c2c(=O)[nH]1 [Pemetrexed] + Cc1cc(Nc2cc(N3CCN(C)CC3)nc(Sc3ccc(NC(=O)C4CC4)cc3)n2)n[nH]1 [Tozasertib] (partner 0.1 µM)
Method in brief: as §1

| Cell Line | relative viability (Idelalisib + Olaparib; first compound 0.04 µM) | relative viability (Idelalisib + Olaparib; first compound 0.1265 µM) | relative viability (Idelalisib + Olaparib; first compound 0.4 µM) | relative viability (Idelalisib + Olaparib; first compound 1.265 µM) | relative viability (Idelalisib + Olaparib; first compound 4 µM) | relative viability (Pemetrexed + Foretinib; first compound 0.002 µM) | relative viability (Pemetrexed + Foretinib; first compound 0.006325 µM) | relative viability (Pemetrexed + Foretinib; first compound 0.02 µM) | relative viability (Pemetrexed + Foretinib; first compound 0.06325 µM) | relative viability (Pemetrexed + Foretinib; first compound 0.2 µM) | relative viability (Pemetrexed + Lapatinib; first compound 0.002 µM) | relative viability (Pemetrexed + Lapatinib; first compound 0.006325 µM) | relative viability (Pemetrexed + Lapatinib; first compound 0.02 µM) | relative viability (Pemetrexed + Lapatinib; first compound 0.06325 µM) | relative viability (Pemetrexed + Lapatinib; first compound 0.2 µM) | relative viability (Pemetrexed + Tozasertib; first compound 0.002 µM) | relative viability (Pemetrexed + Tozasertib; first compound 0.006325 µM) | relative viability (Pemetrexed + Tozasertib; first compound 0.02 µM) | relative viability (Pemetrexed + Tozasertib; first compound 0.06325 µM) | relative viability (Pemetrexed + Tozasertib; first compound 0.2 µM) |
| --- | --- | --- | --- | --- | --- | --- | --- | --- | --- | --- | --- | --- | --- | --- | --- | --- | --- | --- | --- | --- |
| LOU-NH91 | 0.986 | 0.936 | 0.856 | 0.848 | 0.912 | 0.941 | 0.915 | 0.992 | 0.709 | 0.434 | 0.799 | 0.792 | 0.734 | 0.58 | 0.514 | 0.656 | 0.676 | 0.706 | 0.54 | 0.366 |
| LU99A | 0.251 | 0.25 | 0.274 | 0.206 | 0.241 | 0.776 | 0.775 | 0.811 | 0.793 | 0.768 | 0.926 | 0.909 | 0.991 | 0.97 | 0.744 | 0.259 | 0.325 | 0.338 | 0.272 | 0.249 |
| LXF-289 | 1.13 | 1.07 | 1.02 | 1.06 | 1.04 | 0.925 | 0.994 | 1.03 | 0.991 | 0.959 | 0.822 | 0.862 | 0.949 | 0.899 | 0.874 | 0.165 | 0.19 | 0.194 | 0.163 | 0.183 |
| NCI-H23 | 0.286 | 0.289 | 0.336 | 0.29 | 0.307 | 1.03 | 0.943 | 1.22 | 0.618 | 0.989 | 0.968 | 0.882 | 1.26 | 1.04 | 0.919 | 0.311 | 0.36 | 0.514 | 0.347 | 0.395 |
| NCI-H322M | 0.652 | 0.813 | 0.781 | 0.747 | 0.77 | 0.961 | 0.864 | 0.973 | 0.917 | 0.834 | 0.642 | 0.531 | 0.657 | 0.551 | 0.618 | 0.513 | 0.505 | 0.486 | 0.504 | 0.452 |
| NCI-H358 | 0.562 | 0.586 | 0.522 | 0.606 | 0.516 | 0.624 | 0.747 | 0.56 | 0.223 | 0.149 | 0.4 | 0.4 | 0.441 | 0.311 | 0.276 | 0.116 | 0.141 | 0.108 | 0.102 | 0.0813 |
| NCI-H460 | 0.491 | 0.466 | 0.461 | 0.454 | 0.472 | 0.989 | 0.942 | 1.1 | 0.64 | 0.0776 | 0.892 | 0.856 | 0.963 | 0.276 | 0.0581 | 0.108 | 0.48 | 0.511 | 0.272 | 0.0837 |
| NCI-H520 | 0.34 | 0.364 | 0.276 | 0.302 | 0.269 | 0.787 | 0.749 | 0.848 | 0.693 | 0.738 | 0.803 | 0.886 | 0.833 | 0.829 | 0.838 | 0.42 | 0.475 | 0.447 | 0.412 | 0.45 |
| NCI-H596 | 0.662 | 0.667 | 0.707 | 0.647 | 0.675 | 0.765 | 0.83 | 0.938 | 0.786 | 0.581 | 1.03 | 1.09 | 1.07 | 0.82 | 0.644 | 0.873 | 0.858 | 0.887 | 0.754 | 0.491 |
| NCI-H647 | 0.623 | 0.602 | 0.489 | 0.614 | 0.281 | 0.946 | 1.07 | 1.33 | 0.989 | 0.386 |  | 1.08 | 1.16 | 0.889 | 0.264 | 0.309 | 0.246 | 0.297 | 0.208 | 0.128 |
| NCI-H650 | 0.414 | 0.441 | 0.362 | 0.334 | 0.37 | 1.07 | 0.97 | 1.08 | 0.988 | 1.02 | 0.829 | 0.924 | 0.524 | 0.849 | 0.841 | 0.666 | 0.691 | 0.826 | 0.734 | 0.74 |
| NCI-H661 | 0.821 | 0.783 | 0.738 | 0.888 | 0.764 | 1.03 | 0.987 | 1.01 | 0.985 | 0.974 | 0.731 | 0.503 | 0.593 | 0.417 | 0.586 | 0.368 | 0.325 | 0.349 | 0.348 | 0.351 |
| NCI-H727 | 0.813 | 0.624 | 0.688 | 0.779 | 0.836 | 0.823 | 0.902 | 0.87 | 0.838 | 0.966 | 0.802 | 0.825 | 0.634 | 0.844 | 0.773 | 0.6 | 0.584 | 0.498 | 0.738 | 0.61 |
| NCI-H838 | 0.779 | 0.794 | 0.745 | 0.775 | 0.564 | 1.01 | 0.912 | 1.16 | 0.91 | 0.267 | 0.904 | 0.93 | 1.35 | 0.856 | 0.329 | 0.229 | 0.276 | 0.295 | 0.265 | 0.203 |
| NCI-H1355 | 0.78 | 0.694 | 0.632 | 0.776 | 0.673 | 0.864 | 0.956 | 1.05 | 1.01 | 0.948 | 0.783 | 1.05 | 0.991 | 1.04 | 0.975 | 0.532 | 0.516 | 0.554 | 0.632 | 0.586 |
| NCI-H1395 | 0.456 | 0.455 | 0.445 | 0.43 | 0.41 | 0.912 | 0.965 | 1.05 | 0.962 | 0.937 | 0.875 | 1.02 | 1.11 | 0.922 | 0.883 | 0.783 | 0.721 | 0.826 | 0.717 | 0.79 |
